Assay results: ChEMBL document CHEMBL3046605, “Biocontrol of rice blast by the phenaminomethylacetic acid producer of Bacillus methylotrophicus strain BC79” (2013)

How the values were obtained:
Assay type in all cases: functional
Pyricularia oryzae [1] = experiment: Antifungal activity against Magnaporthe oryzae in rice seedlings assessed as rice blast disease incidence at 15% with formulation dose of 400 g/667 m'2 applied using knapsack sprayer measured under field trials (reference value: 43.7 +/-5.4%)
Pyricularia oryzae [2] = experiment: Antifungal activity against Magnaporthe oryzae in rice seedlings assessed as rice blast disease incidence at 15% with formulation dose of 200 g/667 m'2 applied using knapsack sprayer measured under field trials (reference value: 43.7 +/-5.4%)
Pyricularia oryzae [3] = experiment: Antifungal activity against Magnaporthe oryzae in rice seedlings assessed as rice blast disease control efficacy treated after fungal inoculation at 15% measured under green house conditions
Pyricularia oryzae [4] = experiment: Antifungal activity against Magnaporthe oryzae in rice seedlings assessed as rice blast disease incidence treated 24 hr prior to fungal inoculation at 15% measured at 6 days post-inoculation under green house conditions (reference value: 92.4 +/-5.6%)
Pyricularia oryzae [5] = experiment: Antifungal activity against Magnaporthe oryzae in rice seedlings assessed as rice blast disease incidence treated after fungal inoculation at 15% measured under green house conditions (reference value: 92.4 +/-5.6%)
Pyricularia oryzae [6] = experiment: Antifungal activity against Magnaporthe oryzae in rice seedlings assessed as rice blast disease control efficacy at 15% with formulation dose of 400 g/667 m'2 applied using knapsack sprayer measured under field trials
Pyricularia oryzae [7] = experiment: Antifungal activity against Magnaporthe oryzae in rice seedlings assessed as rice yield at 15% with formulation dose of 400 g/667 m'2 applied using knapsack sprayer measured under field trials (reference value: 5940.6 +/-1.8 kg/hm'2)
Pyricularia oryzae [8] = experiment: Antifungal activity against Magnaporthe oryzae in rice seedlings assessed as rice blast disease control efficacy treated 24 hr prior to fungal inoculation at 15% measured at 6 days post-inoculation under green house conditions
Pyricularia oryzae [9] = experiment: Antifungal activity against Magnaporthe oryzae in rice seedlings assessed as rice yield at 15% with formulation dose of 200 g/667 m'2 applied using knapsack sprayer measured under field trials (reference value: 5940.6 +/-1.8 kg/hm'2)
Pyricularia oryzae [10] = experiment: Antifungal activity against Magnaporthe oryzae in rice seedlings assessed as rice blast disease control efficacy at 15% with formulation dose of 200 g/667 m'2 applied using knapsack sprayer measured under field trials

O=C(O)CCNc1ccccc1 [PHENAMINO METHYL ACETIC ACID]
Activity (Pyricularia oryzae [1]): 18.3%
Activity (Pyricularia oryzae [2]): 18.3%
Efficacy (Pyricularia oryzae [3]): 73.6%
Activity (Pyricularia oryzae [4]): 62.5%
Activity (Pyricularia oryzae [5]): 60%
Efficacy (Pyricularia oryzae [6]): 75.5%
Activity (Pyricularia oryzae [7]): 6275.7 Kg/hr.m2
Efficacy (Pyricularia oryzae [8]): 74.3%
Activity (Pyricularia oryzae [9]): 6480.5 Kg/hr.m2
Efficacy (Pyricularia oryzae [10]): 68.3%
